# From patent US20040242487A1, “Regulation of eating behavior” (Joslin Diabetes Center, Inc., a Massachusetts corporation, priority 1995, published 2004)
# Entries after “also recorded” stand apart in the source; their conditions may differ.
# Legend:
# [1] = biological target: T1, MC3-R (Mus musculus, UniProt P33033); experiment: HEK-293 assay: ACTH binding to MC3-R after exposure to MCH; assay type: cell-based; conditions: HEK-293 cells stably transfected with MC3-R; exposure to 10^-7 M MCH for 20 minutes or overnight
# T1 construct: expressed in transfected cells; host or cells: HEK-293 (human kidney), stably transfected
# Protocol: As discussed herein, heterologous human kidney, HEK-293 cells stably transfected with a plasmid carrying MC3-R can be used to assay MCH activity. It is not clear whether the MCH interaction with the MC3-R receptor is direct or indirect, but application of MCH results in an increase in binding of ACTH to the MC3-R receptor. […] Exposure of cells to 10^-7 M MCH for 20 minutes or overnight results in a 15-100% increase in ACTH binding.
# [2] = tested on: rat; experiment: In vivo rodent brain assay: intraventricular injection, eating behavior; conditions: intraventricular (third ventricle) injection of 5 μg MCH in 5 μl phosphate buffered saline, versus saline controls
# Excerpt: As discussed herein, rodents, e.g., rats, can be used to assay MCH activity in vivo. A Teflon catheter can be inserted into the third ventricle of a rat and cemented into place. MCH or its analogs, e.g., agonists or antagonists, can be introduced by way of the catheter at various concentrations, and their effect on eating behavior determined.
# To further evaluate the importance of MCH as an appetite regulator, a Teflon catheter was inserted into the third ventricle of a rat and cemented into place, followed by intraventricular injection of 5 μg of MCH in 5 μl of phosphate buffered saline. Control animals received only phosphate buffered saline.
# T1 sequence (P33033 whole entry): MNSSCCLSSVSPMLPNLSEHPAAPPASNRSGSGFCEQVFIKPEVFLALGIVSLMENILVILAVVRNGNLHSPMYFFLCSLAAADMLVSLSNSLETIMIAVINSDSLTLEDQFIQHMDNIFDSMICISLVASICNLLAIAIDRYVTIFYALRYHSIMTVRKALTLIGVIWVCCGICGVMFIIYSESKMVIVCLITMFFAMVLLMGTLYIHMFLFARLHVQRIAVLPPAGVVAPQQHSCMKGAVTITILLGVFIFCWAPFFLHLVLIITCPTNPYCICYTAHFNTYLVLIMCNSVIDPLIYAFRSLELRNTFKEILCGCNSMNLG
substance,measurement,setting,value
melanocyte concentrating hormone [MCH],increase in ACTH binding,[1],15-100%
same,Kcal consumed within one hour,[2],more than doubling; also recorded: doubling
